This note sets out measurements from patent US11479551B2, “MTA-cooperative PRMT5 inhibitors” (Mirati Therapeutics, Inc., priority 2019, dated 2022).

Experiment [1] deals with HCT116 homozygous MTAP knockout cells. Nature of the experiment: Proliferation assay (CellTiter-Glo, 10 days of treatment), HCT116 MTAP knockout. The class given is cell-based. The note with it: Homo sapiens, HCT-116, 240 h, read-out: Proliferation HCT116MTAP_KO IC50. The method, then:
(§1) 1. HCT116 MTAP Knockout Model
(§2) HCT116 cells were genetically engineered to knock out the function of both MTAP alleles using a CRISPR/Cas9 system and an sgRNA targeting the MTAP gene. Following Cas9/MTAP sgRNA transduction, clones were screened to confirm that each allele of the MTAP gene had been inactivated (i.e., homozygous MTAP knock out) creating an MTAP-deficient cell.
(§3) Control samples were analyzed in parallel.
Briefly, on Day 0, 250 HCT116 parental or HCT116 homozygous MTAP knockout cell were seeded in 96 well plates in McCoy's 5A supplemented with 10% fetal bovine serum and pen/strep and the cells were incubated overnight at 37° C. plus 5% CO2.
The following day, cells were treated with DMSO vehicle control or a dose response of PRMT5 inhibitors and incubated at 37 C plus 5% CO2 for five days. On Day 6, the cells were trypsinized and split 1:10 into new 96-well plates with fresh medium containing the same concentration of PRMT5 inhibitor and incubated for an additional 5 days at 37° C. plus 5% CO^2.
On Day 11, the viability of the cells was measured using a CTG assay kit (CellTiter-Glo; Promega cat.no G7573) in accordance with the manufacturer's instructions. The IC50 values for each compound after 10 days of treatment were calculated using GraphPad PRISM software.
For orientation: In ATP-based viability assays light output follows the ATP content of the culture.

Experiment [2] deals with PRMT5-dependent Symmetric Di-methyl Arginine signal in HCT116 homozygous MTAP knockout cells. Nature of the experiment: SYM11 In-Cell Western, HCT116 MTAP knockout. The class given is cell-based. The note with it: Homo sapiens, HCT-116, 96 h, HCT116 homozygous MTAP knockout cells, 4 days of treatment, SYM11/DRAQ5 ratio; read-out: In-cell-Western (SYM11) HCT116 MTAP_KO IC50. Here is the method: as §1, §2, §3
Briefly, on Day 0, 2,000 HCT116 parental or HCT116 homozygous MTAP knockout cells were seeded in 96 well plates in McCoy's 5A supplemented with 10% fetal bovine serum and pen/strep and the cells were incubated overnight at 37° C. plus 5% CO2. The following day, cells were treated with DMSO vehicle control or a dose response of PRMT5 inhibitors, and incubated at 37° C. plus 5% CO^2 for four days.
After 4 days of treatment, the cells were fixed by adding 50 μl of 4% paraformaldehyde solution to each well and the cells were incubated for 20 min at room temperature. The paraformaldehyde solution was removed, 150 μl of ice-cold methanol was added and the plate was placed −20° C. for 10 minutes. The methanol was removed, 150 μl of Odyssey Blocking buffer+0.05% Tween20 was added and the plate was incubated at room temperature with shaking for one hour.
The primary SYM11 antibody solution was removed by aspiration and the wells were washed three consecutive times with phosphate buffered saline containing 0.1% Tween-20 (PBST).
The secondary antibody solution was removed by aspiration and the wells were washed three consecutive times with PB ST.
The SYM11 signal and the DRAQ5 signal were quantified using a Li-Cor Odyssey machine reading at […], respectively. The SYM11/DRAQ5 ratio was used to calculate the inhibition of Symmetric Dimethyl Arginine as percent of DMSO control.

For experiment [3], the target named is T1, PRMT5/MEP50 complex (Homo sapiens (Human), UniProt O14744). The experiment in a line: PRMT5:MEP50 FlashPlate Assay (histone H4 peptide substrate, plus and minus MTA). The class given is biochemical. Here is the method:
(§4) The PRMT5 inhibitory activity of compounds of the present invention was determined using either a PRMT5:MEP50 FlashPlate Assay (Reaction Biology Corporation) or a PRMT5:MEP50 HotSpot Assay (Reaction Biology Corporation).
1. PRMT5:MEP50 FlashPlate Assay

Experiment [4] has as its target T1, PRMT5/MEP50 complex. Nature of the experiment: PRMT5:MEP50 HotSpot Assay (full-length histone H2A substrate, plus and minus MTA). The class given is biochemical. The method, then:
as §4
The assay uses recombinant full-length histone H2A as the PRMT5 substrate. […] The reaction was stopped and transferred to filter paper for detection. The amount of tritiated H2A in each sample was determined using a scintillation counter.

The mark [5] stands for this setting: IC50 + 2 μM MTA (nM), in the presence of 2 μM MTA.
The mark [6] stands for this setting: in the absence of MTA, read-out: IC50.
[7] abbreviates: IC50 + 2 μM MTA, in the presence of 2 μM MTA.

SMILES strings stand for the structures. A value given as a limit tells only on which side of the number the result lay.

T1 sequence (O14744 2-637): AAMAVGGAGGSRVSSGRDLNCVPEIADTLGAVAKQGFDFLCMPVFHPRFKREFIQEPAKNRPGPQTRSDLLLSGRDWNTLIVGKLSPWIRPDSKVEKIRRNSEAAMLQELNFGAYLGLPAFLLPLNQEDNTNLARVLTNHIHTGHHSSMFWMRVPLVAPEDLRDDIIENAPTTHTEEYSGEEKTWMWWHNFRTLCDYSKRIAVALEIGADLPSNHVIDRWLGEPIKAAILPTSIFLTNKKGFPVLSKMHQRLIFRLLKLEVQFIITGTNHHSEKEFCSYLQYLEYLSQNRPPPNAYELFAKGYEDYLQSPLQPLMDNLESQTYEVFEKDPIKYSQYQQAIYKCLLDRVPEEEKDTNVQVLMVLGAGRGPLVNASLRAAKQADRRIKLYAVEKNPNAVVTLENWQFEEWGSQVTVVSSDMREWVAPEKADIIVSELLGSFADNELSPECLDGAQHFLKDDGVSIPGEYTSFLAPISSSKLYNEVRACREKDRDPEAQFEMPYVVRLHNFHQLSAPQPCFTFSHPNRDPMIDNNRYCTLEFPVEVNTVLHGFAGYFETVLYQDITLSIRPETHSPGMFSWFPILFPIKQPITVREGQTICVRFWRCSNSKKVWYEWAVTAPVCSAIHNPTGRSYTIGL
T1 sequence (Q9BQA1 2-342 partner): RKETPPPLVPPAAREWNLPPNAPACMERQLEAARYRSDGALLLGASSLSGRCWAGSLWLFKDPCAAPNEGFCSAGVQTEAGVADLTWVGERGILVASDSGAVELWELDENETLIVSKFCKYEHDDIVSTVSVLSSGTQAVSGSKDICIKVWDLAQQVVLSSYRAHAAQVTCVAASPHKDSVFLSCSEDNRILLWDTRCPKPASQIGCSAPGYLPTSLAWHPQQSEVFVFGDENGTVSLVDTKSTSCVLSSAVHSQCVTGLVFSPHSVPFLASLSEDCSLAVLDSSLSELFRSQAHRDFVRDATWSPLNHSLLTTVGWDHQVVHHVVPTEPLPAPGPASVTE

Consider `CCc1cc(-c2cnn(C)c2-c2cccc(OC3CC3)c2C#N)cc2c(CN)n[nH]c(=O)c12` [Example 15-2, 2-(4-(4-(aminomethyl)-8-ethyl-1-oxo-1,2-dihydrophthalazin-6-yl)-1-methyl-1H-pyrazol-5-yl)-6-cyclopropoxybenzonitrile], for which the results for the IC50 in experiment [1] and in experiment [2] were 211 nM and 96 nM, respectively.

Consider `Cc1cc(OC2CC2)c(C#N)c(-c2c(-c3ccc4c(=O)[nH]nc(CN)c4c3)cnn2C)c1` [Example 12-18, 2-(4-(4-(aminomethyl)-1-oxo-1,2-dihydrophthalazin-6-yl)-1-methyl-1H-pyrazol-5-yl)-6-cyclopropoxy-4-methylbenzonitrile], for which the results for the IC50 in experiment [1] and in experiment [2] were 104 nM and 10 nM, respectively.

Consider `Cn1ncc(-c2ccc3c(=O)[nH]nc(CN)c3c2)c1-c1cn2ccccc2c1C#N` [Example 4-240, 2-(4-(4-(aminomethyl)-1-oxo-1,2-dihydrophthalazin-6-yl)-1-methyl-1H-pyrazol-5-yl)indolizine-1-cathonitrile], for which the IC50 in experiment [1] is 3560 nM; in experiment [2], above 1000 nM.

Consider `Cn1ncc(-c2ccc3c(=O)[nH]nc(CN)c3c2)c1-c1cnn(Cc2cccn(C)c2=O)c1Cl` [Example 4-236, 4-(aminomethyl)-6-(5′-chloro-2-methyl-1′-((1-methyl-2-oxo-1,2-dihydropyridin-3-yl)methyl)-1′H,2H-[3,4′-bipyrazol]-4-yl)phthalazin-1(2H)-one], for which the IC50 in experiment [1] and in experiment [2] was above 1000 nM each time.

Regarding `Cn1ncc(-c2ccc3c(=O)[nH]nc(CN)c3c2)c1-c1ccc2c(cnn2C)c1C#N` [Example 4-249, 5-(4-(4-(aminomethyl)-1-oxo-1,2-dihydrophthalazin-6-yl)-1-methyl-1H-pyrazol-5-yl)-1-methyl-1H-indazole-4-carbonitrile], the IC50 was 3510 nM in experiment [1] and above 1000 nM in experiment [2].

Turning to `Cn1ncc(-c2ccc3c(=O)[nH]nc(CN)c3c2)c1-c1ccc2ncsc2c1C#N` [Example 4-237, 6-(4-(4-(aminomethyl)-1-oxo-1,2-dihydrophthalazin-6-yl)-1-methyl-1H-pyrazol-5-yl)benzo[d]thiazole-7-carbonitrile], the IC50 in experiment [1] came to 1040 nM; in experiment [2], 136 nM.

With `Cn1ncc(-c2cc(Cl)c3c(=O)[nH]nc(CN)c3c2)c1-c1c(F)cc2ccccc2c1C#N` [Example 10-17, 2-(4-(4-(aminomethyl)-8-chloro-1-oxo-1,2-dihydrophthalazin-6-yl)-1-methyl-1H-pyrazol-5-yl)-3-fluoro-1-naphthonitrile], the IC50 in experiment [1] and in experiment [2] was 21 nM throughout.

Consider `Cn1ncc(-c2ccc3c(=O)[nH]nc(CN)c3c2)c1-c1cc2ccccn2c1C#N` [Example 4-227, 2-(4-(4-(aminomethyl)-1-oxo-1,2-dihydrophthalazin-6-yl)-1-methyl-1H-pyrazol-5-yl)indolizine-3-carbonitrile], for which the IC50 in experiment [1] is 2370 nM; in experiment [2], above 1000 nM.

Regarding `Cn1ncc(-c2ccc3c(=O)[nH]nc(CN)c3c2)c1-c1ccc2cccc(F)c2c1C#N` [Example 4-234, 2-(4-(4-(aminomethyl)-1-oxo-1,2-dihydrophthalazin-6-yl)-1-methyl-1H-pyrazol-5-yl)-8-fluoro-1-naphthonitrile], the IC50 in experiment [1] worked out at 206 nM; in experiment [2] it was 129 nM.

Turning to `Cc1cc(OC2CC2)c(C#N)c(-c2c(-c3cc(Cl)c4c(=O)[nH]nc(CN)c4c3)cnn2C)c1F` [Example 10-20, 2-(4-(4-(aminomethyl)-8-chloro-1-oxo-1,2-dihydrophthalazin-6-yl)-1-methyl-1H-pyrazol-5-yl)-6-cyclopropoxy-3-fluoro-4-methylbenzonitrile], the IC50 turned out to be 35 nM in experiment [1] and 29 nM in experiment [2].

For `Cn1ncc(-c2ccc3c(=O)[nH]nc(CN)c3c2)c1-c1cnn(Cc2ccccc2)c1C#N` [Example 4-211, 4-(4-(aminomethyl)-1-oxo-1,2-dihydrophthalazin-6-yl)-1′-benzyl-2-methyl-1′H,2H-[3,4′-bipyrazole]-5′-carbonitrile], the IC50 in experiment [1] was 2150 nM; in experiment [2] it was 197 nM.

As to `Cn1ncc(-c2ccc3c(=O)[nH]nc(CN)c3c2)c1-c1cn(Cc2ccccc2C#N)nc1Cl` [Example 4-232, 2-((4-(4-(aminomethyl)-1-oxo-1,2-dihydrophthalazin-6-yl)-3′-chloro-2-methyl-1′H,2H-[3,4′-bipyrazol]-1′-yl)methyl)benzonitrile], the IC50 is 4770 nM in experiment [1] and 148 nM in experiment [2].

On to `Cc1cc2ccccc2c(C#N)c1-c1c(-c2ccc3c(=O)[nH]nc(CN)c3c2)cnn1C` [Example 12-15, 2-[4-[4-(aminomethyl)-1-oxo-2H-phthalazin-6-yl]-2-methyl-pyrazol-3-yl]-3-methyl-naphthalene-1-carbonitrile], for which the IC50 in experiment [1] was found to be 261 nM; in experiment [2] it was 189 nM.

Take `Cn1ncc(-c2cc(C(F)(F)F)c3c(=O)[nH]nc(CN)c3c2)c1-c1ccc2ccccc2c1C#N` [Example 10-13, 2-(4-(4-(aminomethyl)-1-oxo-8-(trifluoromethyl)-1,2-dihydrophthalazin-6-yl)-1-methyl-1H-pyrazol-5-yl)-1-naphthonitrile]: the results for the IC50 in experiment [1] and in experiment [2] were 85 nM and 16 nM, respectively.

For `Cn1ncc(-c2ccc3c(=O)[nH]nc(CN)c3c2)c1-c1cc(OC(F)(F)F)cc(OC2CC2)c1C#N` [Example 4-252, 2-(4-(4-(aminomethyl)-1-oxo-1,2-dihydrophthalazin-6-yl)-1-methyl-1H-pyrazol-5-yl)-6-cyclopropoxy-4-(trifluoromethoxy)benzonitrile], the IC50 was 87 nM in experiment [1] and 4 nM in experiment [2].

In the case of `Cn1ncc(-c2ccc3c(=O)[nH]nc(CN)c3c2)c1-c1ccc2cc(F)ccc2c1C#N` [Example 4-216, 2-(4-(4-(aminomethyl)-1-oxo-1,2-dihydrophthalazin-6-yl)-1-methyl-1H-pyrazol-5-yl)-6-fluoro-1-naphthonitrile], the IC50 in experiment [1] turned out to be 134 nM; in experiment [2] it was 83 nM.

For `COc1ccc(-c2c(-c3ccc4c(=O)[nH]nc(CN)c4c3)cnn2C)cc1` [Example 4-98, 4-(aminomethyl)-6-(5-(4-methoxyphenyl)-1-methyl-1H-pyrazol-4-yl)phthalazin-1(2H)-one], the figures for the IC50 on PRMT5/MEP50 complex [3] (setting [5]), at PRMT5/MEP50 complex [3] (setting [6]) and on PRMT5/MEP50 complex [4] (setting [7]) were 2.1 nM, 90 nM and 635 nM, respectively.

For `Cn1ncc(-c2ccc3c(=O)[nH]nc(CN)c3c2)c1-c1ccc(Cl)cc1` [Example 4-96, 4-(aminomethyl)-6-(5-(4-chlorophenyl)-1-methyl-1H-pyrazol-4-yl)phthalazin-1(2H)-one], the IC50 at PRMT5/MEP50 complex [3] (setting [5]) was 3.9 nM; at PRMT5/MEP50 complex [3] (setting [6]) it was 116 nM; on PRMT5/MEP50 complex [4] (setting [7]), 868 nM; at PRMT5/MEP50 complex [4] (setting [6]), above 10000 nM.

As to `CCOc1ccc2ncc(-c3ccc4c(=O)[nH]nc(CN)c4c3)n2c1` [Example 4-36, 4-(aminomethyl)-6-(6-ethoxyimidazo[1,2-a]pyridin-3-yl)phthalazin-1(2H)-one], the results for the IC50 at PRMT5/MEP50 complex [3] (setting [5]), on PRMT5/MEP50 complex [3] (setting [6]) and on PRMT5/MEP50 complex [4] (setting [7]) were 13 nM, 541 nM and 2800 nM, respectively.

For `NCc1n[nH]c(=O)c2ccc(-c3cnc4[nH]ccc4c3)cc12` [Example 3-59, 4-(aminomethyl)-6-(1H-pyrrolo[2,3-b]pyridin-5-yl)phthalazin-1(2H)-one], the IC50 on PRMT5/MEP50 complex [3] (setting [5]) is 7.7 nM; at PRMT5/MEP50 complex [3] (setting [6]), 399 nM; at PRMT5/MEP50 complex [4] (setting [7]), 1140 nM; at PRMT5/MEP50 complex [4] (setting [6]), above 10000 nM.
